What was measured:
[1] = biological target: T1, EGFR (epidermal growth factor receptor) (Homo sapiens, UniProt P00533); experiment: EGF-R kinase selectivity assay; type: biochemical; conditions: Table 4 kinase selectivity
T1 construct: is purified from human A431 cell membranes; purchased Sigma E3641; host or cells: A431 cell membranes
Protocol: Assays to test compound inhibition of other kinases were preformed using methods that measure the amount of phosphorylation of a biotinylated peptide substrate. Biotinylated peptide substrates were selected from the literature as appropriate for the enzyme being evaluated. […] Assay conditions vary slightly for each protein kinase, for example, insulin receptor kinase requires 10 mM MnCl2 for activity and Calmodulin-dependent protein kinase requires calmodulin and 2 mM CaCl2. The reaction mixture was dispensed into the wells of a streptavidin coated Flashplate and 1 μl drug stock in 100% DMSO was added to a 100 μl reaction volume resulting in a final concentration of 1% DMSO in the reaction. Enzyme was diluted in 50 mM Tris-HCl pH=8.0, 0.1% BSA and added to each well. The reaction was incubated for one hour at 30° C. in the presence of compound. […] The plate was read on a scintillation counter to determine ^33P-γ-ATP incorporated into the immobilized peptide. […] A maximum and minimum signal for the assay was determined on each plate. The IC50 was calculated from the dose response curve of the percent inhibition of the maximum signal in the assay according to the formula [max signal−background/test compound signal−background (100)=% inhibition] by graphing the percent inhibition against the log concentration of test compound. […]

[2] = tested on: HeLa cervical adenocarcinoma; experiment: Cell proliferation assay (14C-thymidine incorporation), HeLa; type: cell-based; conditions: Homo sapiens, read-out: Inhibition of cell proliferation IC50
Protocol: (§1) The ability of a test compound to inhibit the proliferation of cell growth was determined by measuring incorporation of ^14C-labelled thymidine into newly synthesized DNA within the cells. This method was used on cell lines derived from carcinomas originating from several tissues such as HeLa cervical adenocarcinoma (American Type Culture Collection (ATCC), Virginia, Cat. #CCL-2), A375 malignant melanoma (ATCC CRL-1619), SK-OV-3 ovarian adenocarcinoma (ATCC HTB-77) HCT-116 colon carcinoma (CCL-247) and PC-3 prostate adenocarcinoma (ATCC CRL-1435). The method was also used on primary cells such as HUVEC endothelial cells (ATCC CRL-1730). In this way the effect of a compound on cell growth of cells with many different phenotypes can be determined. Cells were trypsinized and counted and 3000-8000 cells were added to each well of a 96-well CytoStar tissue culture treated scintillating microplate (Amersham #RPNQ0160) in complete medium in a volume of 100 μl. Cells were incubated for 24 hours in complete medium at 37° C. in an atmosphere containing 5% CO2.
(§2) Next, 1 μl of test compound in 100% DMSO was added to the wells of the plate. DMSO only was added to control wells. Cells were incubated for 24 more hours in complete medium at 37° C. in an atmosphere containing 5% CO2. Methyl ^14C-thymidine 56 mCi/mmol (NEN #NEC568 or Amersham #CFA532) was diluted in complete medium and 0.2 μCi/well was added to each well of the CytoStar plate in a volume of 20 μl. The plate was incubated for 24 hours at 37° C. plus 5% CO2 in drug plus ^14C-thymidine. The contents of the plate were discarded into a ^14C radioactive waste container by inverting the plate and the plate was washed twice with 200 μl PBS. 200 μl of PBS is then added to each well. The top of the plate was sealed with a transparent plate sealer and a white plate backing sealer (Packard #6005199) was applied to the bottom of the plate. The degree of Methyl ^14C-thymidine incorporation was quantified on a Packard Top Count.

[3] = tested on: SK-OV-3 ovarian adenocarcinoma; experiment: Cell proliferation assay (14C-thymidine incorporation), SK-OV-3; type: cell-based; conditions: Homo sapiens, read-out: Inhibition of cell proliferation IC50
Protocol: as §1, §2

HCT-116 colon carcinoma = experiment: Cell proliferation assay (14C-thymidine incorporation), HCT-116; type: cell-based; conditions: Homo sapiens, read-out: Inhibition of cell proliferation IC50
Protocol: as §1, §2

T1 sequence (P00533 25-1210): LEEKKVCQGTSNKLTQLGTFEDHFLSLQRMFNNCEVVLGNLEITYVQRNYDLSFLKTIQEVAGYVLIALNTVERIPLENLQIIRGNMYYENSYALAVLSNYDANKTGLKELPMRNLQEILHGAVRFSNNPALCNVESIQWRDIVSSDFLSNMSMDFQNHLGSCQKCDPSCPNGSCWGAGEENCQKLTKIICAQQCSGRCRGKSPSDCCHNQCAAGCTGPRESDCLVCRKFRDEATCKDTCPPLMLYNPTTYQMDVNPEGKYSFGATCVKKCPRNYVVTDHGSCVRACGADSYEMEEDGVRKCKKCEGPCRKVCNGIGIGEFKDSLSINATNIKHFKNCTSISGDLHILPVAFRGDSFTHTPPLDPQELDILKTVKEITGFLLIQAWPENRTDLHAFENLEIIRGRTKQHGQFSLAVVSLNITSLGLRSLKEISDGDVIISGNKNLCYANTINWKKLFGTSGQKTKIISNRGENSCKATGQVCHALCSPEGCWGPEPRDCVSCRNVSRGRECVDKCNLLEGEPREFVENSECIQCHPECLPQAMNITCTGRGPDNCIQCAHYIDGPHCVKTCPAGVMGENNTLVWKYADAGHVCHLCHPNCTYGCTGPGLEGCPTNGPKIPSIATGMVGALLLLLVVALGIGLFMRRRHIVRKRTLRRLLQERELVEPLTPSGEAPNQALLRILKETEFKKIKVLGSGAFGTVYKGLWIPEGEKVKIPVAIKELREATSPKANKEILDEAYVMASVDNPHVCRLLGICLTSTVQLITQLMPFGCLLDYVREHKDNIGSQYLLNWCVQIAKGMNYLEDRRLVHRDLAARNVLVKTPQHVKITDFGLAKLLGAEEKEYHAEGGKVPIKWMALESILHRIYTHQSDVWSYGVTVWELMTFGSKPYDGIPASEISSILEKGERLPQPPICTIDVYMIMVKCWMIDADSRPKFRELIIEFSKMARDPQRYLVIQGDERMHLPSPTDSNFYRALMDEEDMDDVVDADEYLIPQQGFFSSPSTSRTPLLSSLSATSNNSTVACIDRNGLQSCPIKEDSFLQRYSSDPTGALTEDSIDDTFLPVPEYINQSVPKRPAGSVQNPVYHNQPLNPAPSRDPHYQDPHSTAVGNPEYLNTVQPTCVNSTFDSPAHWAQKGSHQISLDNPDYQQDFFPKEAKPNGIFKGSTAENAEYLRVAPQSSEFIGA

SMILES	IC50 [1]	IC50 [2]	IC50 [3]	IC50 (HCT-116 colon carcinoma)
CN(C)CCCNc1cncc(-c2cncc(Nc3cccc(Cl)c3)n2)c1 [Cmd 35]	20.7 µM			
O=C(NCCCO)c1cncc(-c2cncc(Nc3cccc(Cl)c3)n2)c1 [Cmd 39]	6.06 µM			
Clc1cccc(Nc2cncc(-c3cncc(NCCCN4CCCCC4)c3)n2)c1 [Cmd 73]		2.2 µM	3.78 µM	
CN(C)CCNc1cncc(-c2cncc(Nc3cccc(Cl)c3)n2)c1 [Cmd 33, N′-[5-[6-[(3-chlorophenyl)amino]pyrazinyl]-3-pyridinyl]-N^2,N^2-dimethyl-1,2-ethanediamine]		2.23 µM	21.5 µM	> 100 µM
